Assay results: US20160367623A1, “AGONISTS OF GUANYLATE CYCLASE USEFUL FOR THE TREATMENT OF GASTROINTESTINAL DISORDERS, INFLAMMATION, CANCER AND OTHER DISORDERS” (priority 2015, published 2016)
Bridge positions count the residues as written; N and C are the ends. Ends that are not written are not given here.

Test system: patients with chronic idiopathic constipation (CIC)
Assay: Second phase 3 CIC trial: CSBM weekly responders by week
Type: in vivo, human
Settings: MRA
From the text: Both trials include a two-week pre-treatment baseline period, a 12-week treatment period, and a two-week post-treatment period. The phase 3 CIC program was designed to support regulatory submission in the U. S.
The primary endpoint for both trials is the proportion of durable overall responders (%), which is the current regulatory endpoint required for U.S. approval in CIC. The FDA has defined a durable overall responder as a patient who fulfills both ≧3 complete spontaneous bowel movements (CSBMs) per week plus an increase of ≧1 CSBM from baseline in the same week, for 9 out of the 12 treatment weeks. In addition, the same patient must be an overall responder for at least 3 of the last 4 treatment weeks in order to be considered a durable overall responder.
Patients were selected using Rome 3 criteria modified for CIC and had (1) fewer than 3 defecations per week, (2) loose stools occurring rarely without laxatives, (3) inadequate criteria for irritable bowel syndrome with constipation (IBS-C), and (4) at least two of the following applied to at least 25% of defecations: (a) straining during evacuation, (b) lumpy or hard stools, (c) sensation of anorectal obstruction or blockage. Rome 3 requires patients to fulfill the criteria for the last 3 months with symptom onset at least 6 months prior to diagnosis.

[1] = Week 9, Active Combined, ITT Population-Excluding Duplicate Patients
[2] = Week 9, Active Combined, ITT Population
[3] = Week 10, 3 mg, ITT Population-Excluding Duplicate Patients
[4] = Week 10, 6 mg, ITT Population-Excluding Duplicate Patients
[5] = Week 10, Active Combined, ITT Population-Excluding Duplicate Patients
[6] = Week 10, Active Combined, ITT Population
[7] = Week 11, 3 mg, All Randomized (includes Duplicate Patients)
[8] = Week 11, 3 mg, ITT Population-Excluding Duplicate Patients
[9] = Week 11, 6 mg, All Randomized (includes Duplicate Patients)
[10] = Week 11, 6 mg, ITT Population-Excluding Duplicate Patients
[11] = Week 11, Active Combined, All Randomized (includes Duplicate Patients)
[12] = Week 11, Active Combined, ITT Population-Excluding Duplicate Patients
[13] = Week 11, Active Combined, ITT Population
[14] = Week 12, 3 mg, All Randomized (includes Duplicate Patients)
[15] = Week 12, 3 mg, ITT Population-Excluding Duplicate Patients
[16] = Week 12, 6 mg, All Randomized (includes Duplicate Patients)
[17] = Week 12, 6 mg, ITT Population-Excluding Duplicate Patients
[18] = Week 12, Active Combined, All Randomized (includes Duplicate Patients)
[19] = Week 12, Active Combined, ITT Population-Excluding Duplicate Patients
[20] = Week 12, Active Combined, ITT Population

Substance: Asn^1-Asp^2-Glu^3-Cys^4-Glu^5-Leu^6-Cys^7-Val^8-Asn^9-Val^10-Ala^11-Cys^12-Thr^13-Gly^14-Cys^15-Leu^16 (NDECELCVNVACTGCL; disulfide 4-12, 7-15) [Plecanatide, uroguanylin analogue, guanylate cyclase-C agonist; (C4:C12, C7:C15) bicycle peptide]
- Odds Ratio (adjusted) (Week 9, 6 mg vs placebo, ITT Population): 0.727
- CSBM Weekly Responders, n (%) [1]: 286 (32.6) n (%)
- Non-Responders, n (%) [1]: 591 (67.4) n (%)
- CSBM Weekly Responders, n (%) [2]: 288 (32.3) n (%)
- Non-Responders, n (%) [2]: 604 (67.7) n (%)
- Difference in Proportions (adjusted) (Week 10, 3 mg minus placebo, All Randomized (includes Duplicate Patients)): 0.067
- Odds Ratio (adjusted) (Week 10, 3 mg vs placebo, All Randomized (includes Duplicate Patients)): 0.708
- Non-Responders, n (%) (Week 10, 3 mg, All Randomized (includes Duplicate Patients)): 328 (69.8) n (%)
- CSBM Weekly Responders, n (%) (Week 10, 3 mg, ITT Population): 137 (30.9) n (%)
- Non-Responders, n (%) (Week 10, 3 mg, ITT Population): 306 (69.1) n (%)
- CSBM Weekly Responders, n (%) [3]: 136 (31.3) n (%)
- Non-Responders, n (%) [3]: 298 (68.7) n (%)
- Difference in Proportions (adjusted) (Week 10, 6 mg minus placebo, All Randomized (includes Duplicate Patients)): 0.097
- Odds Ratio (adjusted) (Week 10, 6 mg vs placebo, All Randomized (includes Duplicate Patients)): 0.619
- Non-Responders, n (%) (Week 10, 6 mg, All Randomized (includes Duplicate Patients)): 315 (66.9) n (%)
- CSBM Weekly Responders, n (%) (Week 10, 6 mg, ITT Population): 154 (34.3) n (%)
- Non-Responders, n (%) (Week 10, 6 mg, ITT Population): 295 (65.7) n (%)
- CSBM Weekly Responders, n (%) [4]: 153 (34.5) n (%)
- Non-Responders, n (%) [4]: 290 (65.5) n (%)
- Non-Responders, n (%) (Week 10, Active Combined, All Randomized (includes Duplicate Patients)): 643 (68.3) n (%)
- Difference in Proportions (adjusted) (Week 10, 3 mg minus placebo, ITT Population-Excluding Duplicate Patients): 0.064
- Difference in Proportions (adjusted) (Week 10, 3 mg minus placebo, ITT Population): 0.062
- Odds Ratio (adjusted) (Week 10, 3 mg vs placebo, ITT Population-Excluding Duplicate Patients): 0.729
- Odds Ratio (adjusted) (Week 10, 3 mg vs placebo, ITT Population): 0.734
- Difference in Proportions (adjusted) (Week 10, 6 mg minus placebo, ITT Population-Excluding Duplicate Patients): 0.096
- Difference in Proportions (adjusted) (Week 10, 6 mg minus placebo, ITT Population): 0.096
- Odds Ratio (adjusted) (Week 10, 6 mg vs placebo, ITT Population-Excluding Duplicate Patients): 0.630
- Odds Ratio (adjusted) (Week 10, 6 mg vs placebo, ITT Population): 0.629
- CSBM Weekly Responders, n (%) [5]: 289 (33.0) n (%)
- Non-Responders, n (%) [5]: 588 (67.0) n (%)
- CSBM Weekly Responders, n (%) [6]: 291 (32.6) n (%)
- Non-Responders, n (%) [6]: 601 (67.4) n (%)
- Difference in Proportions (adjusted) (Week 11, 3 mg minus placebo, All Randomized (includes Duplicate Patients)): 0.089
- Odds Ratio (adjusted) (Week 11, 3 mg vs placebo, All Randomized (includes Duplicate Patients)): 0.643
- CSBM Weekly Responders, n (%) [7]: 153 (32.6) n (%)
- Non-Responders, n (%) [7]: 317 (67.4) n (%)
- CSBM Weekly Responders, n (%) (Week 11, 3 mg, ITT Population): 147 (33.2) n (%)
- Non-Responders, n (%) (Week 11, 3 mg, ITT Population): 296 (66.8) n (%)
- CSBM Weekly Responders, n (%) [8]: 147 (33.9) n (%)
- Non-Responders, n (%) [8]: 287 (66.1) n (%)
- Difference in Proportions (adjusted) (Week 11, 6 mg minus placebo, All Randomized (includes Duplicate Patients)): 0.082
- Odds Ratio (adjusted) (Week 11, 6 mg vs placebo, All Randomized (includes Duplicate Patients)): 0.664
- CSBM Weekly Responders, n (%) [9]: 150 (31.8) n (%)
- Non-Responders, n (%) [9]: 321 (68.2) n (%)
- CSBM Weekly Responders, n (%) (Week 11, 6 mg, ITT Population): 145 (32.3) n (%)
- Non-Responders, n (%) (Week 11, 6 mg, ITT Population): 304 (67.7) n (%)
- CSBM Weekly Responders, n (%) [10]: 144 (32.5) n (%)
- Non-Responders, n (%) [10]: 299 (67.5) n (%)
- CSBM Weekly Responders, n (%) [11]: 303 (32.2) n (%)
- Non-Responders, n (%) [11]: 638 (67.8) n (%)
- Difference in Proportions (adjusted) (Week 11, 3 mg minus placebo, ITT Population-Excluding Duplicate Patients): 0.089
- Difference in Proportions (adjusted) (Week 11, 3 mg minus placebo, ITT Population): 0.086
- Odds Ratio (adjusted) (Week 11, 3 mg vs placebo, ITT Population-Excluding Duplicate Patients): 0.649
- Odds Ratio (adjusted) (Week 11, 3 mg vs placebo, ITT Population): 0.654
- Difference in Proportions (adjusted) (Week 11, 6 mg minus placebo, ITT Population-Excluding Duplicate Patients): 0.076
- Difference in Proportions (adjusted) (Week 11, 6 mg minus placebo, ITT Population): 0.078
- Odds Ratio (adjusted) (Week 11, 6 mg vs placebo, ITT Population-Excluding Duplicate Patients): 0.690
- Odds Ratio (adjusted) (Week 11, 6 mg vs placebo, ITT Population): 0.68
- CSBM Weekly Responders, n (%) [12]: 291 (33.2) n (%)
- Non-Responders, n (%) [12]: 586 (66.8) n (%)
- CSBM Weekly Responders, n (%) [13]: 292 (32.7) n (%)
- Non-Responders, n (%) [13]: 600 (67.3) n (%)
- Difference in Proportions (adjusted) (Week 12, 3 mg minus placebo, All Randomized (includes Duplicate Patients)): 0.068
- Odds Ratio (adjusted) (Week 12, 3 mg vs placebo, All Randomized (includes Duplicate Patients)): 0.711
- CSBM Weekly Responders, n (%) [14]: 145 (30.9) n (%)
- Non-Responders, n (%) [14]: 325 (69.1) n (%)
- CSBM Weekly Responders, n (%) (Week 12, 3 mg, ITT Population): 140 (31.6) n (%)
- Non-Responders, n (%) (Week 12, 3 mg, ITT Population): 303 (68.4) n (%)
- CSBM Weekly Responders, n (%) [15]: 140 (32.3) n (%)
- Non-Responders, n (%) [15]: 294 (67.7) n (%)
- Difference in Proportions (adjusted) (Week 12, 6 mg minus placebo, All Randomized (includes Duplicate Patients)): 0.088
- Odds Ratio (adjusted) (Week 12, 6 mg vs placebo, All Randomized (includes Duplicate Patients)): 0.647
- CSBM Weekly Responders, n (%) [16]: 155 (32.9) n (%)
- Non-Responders, n (%) [16]: 316 (67.1) n (%)
- CSBM Weekly Responders, n (%) (Week 12, 6 mg, ITT Population): 151 (33.6) n (%)
- Non-Responders, n (%) (Week 12, 6 mg, ITT Population): 298 (66.4) n (%)
- CSBM Weekly Responders, n (%) [17]: 150 (33.9) n (%)
- Non-Responders, n (%) [17]: 293 (66.1) n (%)
- CSBM Weekly Responders, n (%) [18]: 300 (31.9) n (%)
- Non-Responders, n (%) [18]: 641 (68.1) n (%)
- Difference in Proportions (adjusted) (Week 12, 3 mg minus placebo, ITT Population-Excluding Duplicate Patients): 0.066
- Difference in Proportions (adjusted) (Week 12, 3 mg minus placebo, ITT Population): 0.062
- Odds Ratio (adjusted) (Week 12, 3 mg vs placebo, ITT Population-Excluding Duplicate Patients): 0.724
- Odds Ratio (adjusted) (Week 12, 3 mg vs placebo, ITT Population): 0.737
- Difference in Proportions (adjusted) (Week 12, 6 mg minus placebo, ITT Population-Excluding Duplicate Patients): 0.082
- Difference in Proportions (adjusted) (Week 12, 6 mg minus placebo, ITT Population): 0.082
- Odds Ratio (adjusted) (Week 12, 6 mg vs placebo, ITT Population-Excluding Duplicate Patients): 0.673
- Odds Ratio (adjusted) (Week 12, 6 mg vs placebo, ITT Population): 0.672
- CSBM Weekly Responders, n (%) [19]: 290 (33.1) n (%)
- Non-Responders, n (%) [19]: 587 (66.9) n (%)
- CSBM Weekly Responders, n (%) [20]: 291 (32.6) n (%)
- Non-Responders, n (%) [20]: 601 (67.4) n (%)
